Patent US6815447B2, “N-type calcium channel antagonists for the treatment of pain” (Astrazeneca AB, priority 2000, dated 2004)

Target: N-type calcium channel (Homo sapiens, UniProt Q00975)
Experiment: N-channel FLIPR assay (inhibition of K+-evoked calcium flux in neuronally differentiated IMR32 cells)
Type: cell-based
Settings: 80 mM K+ stimulus, read-out: IC50 for the N-type calcium channel, as measured by the FLIPR assay

Chain of N-type calcium channel (Q00975 whole entry): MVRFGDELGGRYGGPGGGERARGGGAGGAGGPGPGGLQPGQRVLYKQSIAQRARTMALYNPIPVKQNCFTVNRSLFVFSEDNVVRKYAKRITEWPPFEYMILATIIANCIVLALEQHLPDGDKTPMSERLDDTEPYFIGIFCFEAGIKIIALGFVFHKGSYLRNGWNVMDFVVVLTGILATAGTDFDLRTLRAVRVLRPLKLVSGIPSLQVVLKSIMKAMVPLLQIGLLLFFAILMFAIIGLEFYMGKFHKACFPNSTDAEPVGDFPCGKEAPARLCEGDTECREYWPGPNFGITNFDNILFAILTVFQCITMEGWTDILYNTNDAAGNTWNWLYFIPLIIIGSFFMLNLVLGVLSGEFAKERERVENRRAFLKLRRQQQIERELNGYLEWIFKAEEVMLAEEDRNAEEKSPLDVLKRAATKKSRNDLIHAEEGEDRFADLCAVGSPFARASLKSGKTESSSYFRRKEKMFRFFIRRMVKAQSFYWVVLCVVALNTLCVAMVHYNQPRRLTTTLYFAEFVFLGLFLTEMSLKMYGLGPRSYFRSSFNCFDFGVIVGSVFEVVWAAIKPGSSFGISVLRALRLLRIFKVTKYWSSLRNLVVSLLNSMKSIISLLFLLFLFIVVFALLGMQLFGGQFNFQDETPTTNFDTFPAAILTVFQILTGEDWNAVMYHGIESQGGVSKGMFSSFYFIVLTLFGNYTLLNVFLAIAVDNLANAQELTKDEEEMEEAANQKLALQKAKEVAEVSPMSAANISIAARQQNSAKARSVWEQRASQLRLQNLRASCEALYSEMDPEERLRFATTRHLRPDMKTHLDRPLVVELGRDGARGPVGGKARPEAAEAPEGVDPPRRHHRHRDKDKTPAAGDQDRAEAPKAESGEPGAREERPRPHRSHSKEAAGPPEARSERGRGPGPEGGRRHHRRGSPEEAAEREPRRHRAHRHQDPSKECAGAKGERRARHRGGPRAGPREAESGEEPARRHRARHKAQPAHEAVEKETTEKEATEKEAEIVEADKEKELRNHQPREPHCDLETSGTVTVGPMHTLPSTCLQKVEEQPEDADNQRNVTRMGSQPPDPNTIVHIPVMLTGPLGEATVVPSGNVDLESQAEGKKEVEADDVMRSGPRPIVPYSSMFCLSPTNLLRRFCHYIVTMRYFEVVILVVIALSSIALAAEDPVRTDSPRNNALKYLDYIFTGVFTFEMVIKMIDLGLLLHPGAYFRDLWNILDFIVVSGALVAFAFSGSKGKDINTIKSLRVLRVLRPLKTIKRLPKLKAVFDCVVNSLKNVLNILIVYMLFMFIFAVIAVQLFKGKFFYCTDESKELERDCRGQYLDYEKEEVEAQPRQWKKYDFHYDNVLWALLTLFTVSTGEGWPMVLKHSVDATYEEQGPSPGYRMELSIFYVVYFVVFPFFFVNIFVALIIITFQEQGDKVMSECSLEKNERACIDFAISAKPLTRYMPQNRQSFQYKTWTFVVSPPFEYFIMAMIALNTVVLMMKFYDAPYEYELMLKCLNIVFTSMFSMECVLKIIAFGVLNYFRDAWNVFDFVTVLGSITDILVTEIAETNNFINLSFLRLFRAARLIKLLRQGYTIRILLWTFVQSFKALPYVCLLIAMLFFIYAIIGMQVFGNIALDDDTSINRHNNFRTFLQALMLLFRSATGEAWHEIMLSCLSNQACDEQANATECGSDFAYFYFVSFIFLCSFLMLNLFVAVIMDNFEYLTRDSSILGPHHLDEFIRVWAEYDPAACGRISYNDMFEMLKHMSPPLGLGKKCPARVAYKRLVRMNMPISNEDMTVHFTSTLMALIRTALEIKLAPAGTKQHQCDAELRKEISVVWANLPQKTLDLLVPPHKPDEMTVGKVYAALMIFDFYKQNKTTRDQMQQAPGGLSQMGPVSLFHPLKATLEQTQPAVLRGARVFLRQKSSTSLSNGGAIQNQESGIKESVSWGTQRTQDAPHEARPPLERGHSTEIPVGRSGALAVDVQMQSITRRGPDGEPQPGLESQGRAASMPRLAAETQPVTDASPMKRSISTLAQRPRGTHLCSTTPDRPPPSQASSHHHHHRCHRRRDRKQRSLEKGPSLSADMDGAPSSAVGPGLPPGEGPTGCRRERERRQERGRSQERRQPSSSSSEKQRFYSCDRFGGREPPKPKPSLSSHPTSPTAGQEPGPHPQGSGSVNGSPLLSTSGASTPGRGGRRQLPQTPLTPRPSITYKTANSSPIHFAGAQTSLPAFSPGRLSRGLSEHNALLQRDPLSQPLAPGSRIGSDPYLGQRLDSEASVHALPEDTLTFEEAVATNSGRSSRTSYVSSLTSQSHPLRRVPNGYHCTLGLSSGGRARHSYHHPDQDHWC
Chain of N-type calcium channel (P54284 whole entry partner): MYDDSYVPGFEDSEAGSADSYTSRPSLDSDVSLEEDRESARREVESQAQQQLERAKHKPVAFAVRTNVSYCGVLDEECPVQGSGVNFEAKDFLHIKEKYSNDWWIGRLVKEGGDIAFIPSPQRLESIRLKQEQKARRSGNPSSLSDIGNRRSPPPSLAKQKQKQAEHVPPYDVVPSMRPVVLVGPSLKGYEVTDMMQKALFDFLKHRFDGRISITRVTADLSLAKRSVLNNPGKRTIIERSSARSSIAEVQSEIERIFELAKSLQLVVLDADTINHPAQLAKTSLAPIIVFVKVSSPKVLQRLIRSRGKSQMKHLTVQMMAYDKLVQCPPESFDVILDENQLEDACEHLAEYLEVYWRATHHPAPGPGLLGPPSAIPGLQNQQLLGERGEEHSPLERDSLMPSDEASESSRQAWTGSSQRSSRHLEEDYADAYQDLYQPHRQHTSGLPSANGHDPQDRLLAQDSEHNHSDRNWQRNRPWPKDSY
Chain of N-type calcium channel (P54289 25-956 partner limits assumed): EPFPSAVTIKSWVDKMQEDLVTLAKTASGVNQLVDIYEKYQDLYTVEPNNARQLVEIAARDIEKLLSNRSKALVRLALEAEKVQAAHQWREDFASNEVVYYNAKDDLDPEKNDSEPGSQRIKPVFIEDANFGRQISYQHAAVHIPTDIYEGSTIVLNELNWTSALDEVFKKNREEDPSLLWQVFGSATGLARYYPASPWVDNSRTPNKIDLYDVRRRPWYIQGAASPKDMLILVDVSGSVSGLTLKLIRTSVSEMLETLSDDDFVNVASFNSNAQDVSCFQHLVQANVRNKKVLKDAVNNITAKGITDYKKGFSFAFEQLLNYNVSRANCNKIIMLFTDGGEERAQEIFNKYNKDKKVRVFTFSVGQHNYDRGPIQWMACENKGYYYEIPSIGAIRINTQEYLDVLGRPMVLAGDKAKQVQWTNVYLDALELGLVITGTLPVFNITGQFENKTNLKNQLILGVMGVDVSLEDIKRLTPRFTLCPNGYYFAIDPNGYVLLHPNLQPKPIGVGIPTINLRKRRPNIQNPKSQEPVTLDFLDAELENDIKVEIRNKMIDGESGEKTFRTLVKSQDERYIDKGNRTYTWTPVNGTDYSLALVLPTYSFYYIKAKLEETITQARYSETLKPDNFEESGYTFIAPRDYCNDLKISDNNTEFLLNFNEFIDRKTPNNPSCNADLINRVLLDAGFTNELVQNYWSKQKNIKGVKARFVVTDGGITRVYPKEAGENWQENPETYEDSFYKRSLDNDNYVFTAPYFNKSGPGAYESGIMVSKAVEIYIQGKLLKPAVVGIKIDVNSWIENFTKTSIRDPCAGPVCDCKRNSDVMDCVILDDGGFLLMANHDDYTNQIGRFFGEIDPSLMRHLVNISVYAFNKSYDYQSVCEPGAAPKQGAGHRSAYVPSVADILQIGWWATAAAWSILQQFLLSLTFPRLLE
Chain of N-type calcium channel (P54289 957-1103 partner limits assumed): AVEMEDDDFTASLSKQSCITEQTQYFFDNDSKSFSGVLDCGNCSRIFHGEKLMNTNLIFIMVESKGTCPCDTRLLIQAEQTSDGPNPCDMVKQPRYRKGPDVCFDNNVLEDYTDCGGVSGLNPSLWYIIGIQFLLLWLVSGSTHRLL

Row | IC50 | Structure (SMILES)
1 | 3.56 µM | Cc1cc(N)c2cc(Nc3cc(-c4cccc(F)c4)nc(N)n3)ccc2n1 [Example 74, N6-[2-Amino-6-(3-fluoro-phenyl)-pyrimidin-4-yl]-2-methyl-quinoline-4,6-diamine]
2 | 2.37 µM | Cc1cc(N)c2cc(Nc3cc(-c4ccccc4F)nc(N)n3)ccc2n1 [Example 66, N6-[2-Amino-6-(2-fluoro-phenyl)-pyrimidin-4-yl]-2-methyl-quinoline-4,6-diamine]
3 | 10.5 µM | COc1ccccc1-c1cc(Nc2ccc3nc(-c4ccccc4)cc(N)c3c2)nc(N)n1 [Example 75, N6-[2-Amino-6-(2-methoxy-phenyl)-pyrimidin-4-yl]-2-phenyl-quinoline-4,6-diamine]
4 | 3.57 µM | Nc1nc(Nc2ccc3nc(-c4ccccc4)cc(N)c3c2)cc(C(F)(F)F)n1 [Example 4, N6-(2-Amino-6-trifluoromethyl-pyrimidin-4-yl)-2-phenyl-quinoline-4,6-diamine]
